Target: AMPK
Experiment: AMPK activation, enzyme-linked immunosorbent assay
Type: biochemical
Procedure, shortened: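 Read-out: ELISA, used to detect compound-driven activation of AMPK.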

SMILES | EC50 (Table 13, compounds of Table 6) | EC50 (Table 14, compounds of Table 7)
CS(=O)(=O)c1ccc(CN2CCN(C(=O)c3ccc4oc(C(=O)NC5CCN(Cc6ccc(S(=O)(=O)N7CCCC7)cc6)CC5)cc4c3)CC2)cc1 [Compound 6-159, 5-(4-(4-(methylsulfonyl)benzyl)piperazine-1-carbonyl)-N-(1-(4-(pyrrolidin-1-ylsulfonyl)benzyl)piperidin-4-yl)benzofuran-2-carboxamide] | 1000 to 10000 nM | –
COc1ccc(CN2CCC(NC(=O)c3cc4cc(C(=O)N5CCN(Cc6ccc(S(=O)(=O)N7CCCC7)cc6)CC5)ccc4o3)CC2)cc1F [Compound 6-160, N-(1-(3-fluoro-4-methoxybenzyl)piperidin-4-yl)-5-(4-(4-(pyrrolidin-1-ylsulfonyl)benzyl)piperazine-1-carbonyl)benzofuran-2 - carboxamide] | < 100 nM | –
CCNS(=O)(=O)c1ccc(CN2CCN(C(=O)c3ccc4oc(C(=O)NC5CCN(Cc6ccc(OC)c(F)c6)CC5)cc4c3)CC2)cc1 [Compound 6-161, 5-(4-(4-(N-ethylsulfamoyl)benzyl)piperazine-1-carbonyl)-N-(1-(3-fluoro-4-methoxybenzyl)piperidin-4-yl)benzofuran-2-carboxamide] | < 100 nM | –
COc1ccc(CN2CCC(NC(=O)c3cc4cc(C(=O)N5CCN(Cc6ccc(S(=O)(=O)N(C)C)cc6)CC5)ccc4o3)CC2)cc1F [Compound 6-162] | < 100 nM | –
COc1ccc(CN2CCC(NC(=O)c3cc4cc(C(=O)N5CCN(Cc6ccc(S(=O)(=O)N7CCOCC7)cc6)CC5)ccc4o3)CC2)cc1F [Compound 6-163, N-(1-(3-fluoro-4-methoxybenzyl)piperidin-4-yl)-5-(4-(4-(morpholinosulfonyl)benzyl)piperazine-1-arbonyl) benzofuran-2-carboxamide] | < 100 nM | –
COc1ccc(CN2CCC(NC(=O)c3cc4cc(C(=O)N5CCC(Oc6ccc(S(C)(=O)=O)cc6)CC5)ccc4o3)CC2)cc1 [Compound 6-164, N-(1-(4-methoxybenzyl)piperidin-4-yl)-5-(4-(4-(methylsulfonyl)phenoxy)piperidine-1-carbonyl) benzofuran-2-carboxamide] | < 100 nM | –
CS(=O)(=O)c1ccc(OC2CCN(C(=O)c3ccc(C(=O)Nc4ccc(Oc5ccc(S(F)(F)(F)(F)F)cc5)nc4)cn3)CC2)cc1 [Compound 7-1, 6-(4-(4-(methylsulfonyl)phenoxy)piperidine-1-carbonyl)-N-(6-(4-(pentafluorosulfanyl)phenoxy)pyridin-3-yl)nicotinamide] | – | 1000 to 10000 nM
CS(=O)(=O)c1ccc(OC2CCN(C(=O)c3ccc(C(=O)Nc4ccc(Oc5ccc(S(F)(F)(F)(F)F)cc5)nc4)nc3)CC2)cc1 [Compound 7-2, 5-(4-(4-(methylsulfonyl)phenoxy)piperidine-1-carbonyl)-N-(6-(4-(pentafluorosulfanyl)phenoxy)pyridin-3-yl)picolinamide] | – | < 1000 nM
COc1ccc(C(=O)C2CCN(C(=O)c3ccc(C(=O)Nc4ccc(Oc5ccc(S(F)(F)(F)(F)F)cc5)nc4)nc3)CC2)cc1 [Compound 7-3, 5-(4-(4-methoxybenzoyl)piperidine-1-carbonyl)-N-(6-(4-(pentafluorosulfanyl)phenoxy)pyridin-3-yl)picolinamide] | – | < 1000 nM
O=C(Nc1ccc(Oc2ccc(S(F)(F)(F)(F)F)cc2)nc1)c1ccc(C(=O)N2CCC(C(=O)c3ccc(N4CCCC4)cc3)CC2)cn1 [Compound 7-4, 5-(4-(4-(pyrrolidin-1-yl)benzoyl)piperidine-1-carbonyl)-N-(6-(4-(pentafluorosulfanyl)phenoxy)pyridin-3-yl)picolinamide] | – | < 1000 nM
N#Cc1ccc(OC2CCN(C(=O)c3ccc(C(=O)Nc4ccc(Oc5ccc(S(F)(F)(F)(F)F)cc5)nc4)nc3)CC2)cc1 [Compound 7-5, 5-(4-(4-cyanophenoxy)piperidine-1-carbonyl)-N-(6-(4-(pentafluorosulfanyl)phenoxy)pyridin-3-yl)picolinamide] | – | < 1000 nM
CC(C)S(=O)(=O)c1ccc(N2CCN(C(=O)c3ccc(C(=O)Nc4ccc(Oc5ccc(S(F)(F)(F)(F)F)cc5)nc4)nc3)CC2)cc1 [Compound 7-6, 5-(4-(4-(isopropylsulfonyl)phenyl)piperazine-1-carbonyl)-N-(6-(4-(pentafluorosulfanyl)phenoxy)pyridin-3-yl)picolinamide] | – | < 1000 nM
COc1ccc(C(=O)C2CCCN(C(=O)c3ccc(C(=O)NC4CCN(Cc5ccc(C#N)cc5)CC4)cn3)C2)cc1 (centres unmarked) [Compound 7-7, N-(1-(4-cyanobenzyl)piperidin-4-yl)-6-(3-(4-methoxybenzoyl)piperidine-1-carbonyl)nicotinamide] | – | 1000 to 10000 nM
COc1ccc(CN2CCC(NC(=O)c3ccc(C(=O)N4CCCC(C(=O)c5ccc(OC)cc5)C4)nc3)CC2)cc1 (centres unmarked) [Compound 7-8, 6-(3-(4-methoxybenzoyl)piperidine-1-carbonyl)-N-(1-(4-methoxybenzyl)piperidin-4-yl)nicotinamide] | – | 1000 to 10000 nM
COc1ccc(C(=O)C2CCCN(C(=O)c3ccc(C(=O)NC4CCN(Cc5ccc(F)cc5)CC4)cn3)C2)cc1 (centres unmarked) [Compound 7-9, N-(1-(4-fluorobenzyl)piperidin-4-yl)-6-(3-(4-methoxybenzoyl)piperidine-1-carbonyl)nicotinamide] | – | 1000 to 10000 nM
COc1ccc(C(=O)C2CCCN(C(=O)c3ccc(C(=O)Nc4ccc(Oc5ccc(F)cc5)nc4)cn3)C2)cc1 (centres unmarked) [Compound 7-10, N-(6-(4-fluorophenoxy)pyridin-3-yl)-6-(3-(4-methoxybenzoyl)piperidine-1-carbonyl)nicotinamide] | – | 1000 to 10000 nM
COc1ccc(C(=O)C2CCCN(C(=O)c3ccc(C(=O)Nc4ccc(Oc5ccc(C(C)=O)cc5)nc4)cn3)C2)cc1 (centres unmarked) [Compound 7-11, N-(6-(4-acetylphenoxy)pyridin-3-yl)-6-(3-(4-methoxybenzoyl)piperidine-1-carbonyl)nicotinamide] | – | 1000 to 10000 nM
Cc1cc(OC2CCN(C(=O)c3ccc(C(=O)NC4CCN(Cc5ccc(C#N)cc5)CC4)cn3)CC2)ccc1S(C)(=O)=O [Compound 7-13, N-(1-(4-cyanobenzyl)piperidin-4-yl)-6-(4-(3-methyl-4-(methylsulfonyl)phenoxy)piperidine-1-carbonyl) nicotinamide] | – | 1000 to 10000 nM
Cc1cc(OC2CCN(C(=O)c3ccc(C(=O)NC4CCN(Cc5ccc(OC(F)(F)F)cc5)CC4)cn3)CC2)ccc1S(C)(=O)=O [Compound 7-14, 6-(4-(3-methyl-4-(methylsulfonyl)phenoxy)piperidine-1-carbonyl)-N-(1-(4-(trifluoromethoxy)benzyl)piperidin-4-yl)nicotinamide] | – | 1000 to 10000 nM
Cc1cc(OC2CCN(C(=O)c3ccc(C(=O)Nc4ccc(Oc5ccc(C#N)cc5)nc4)cn3)CC2)ccc1S(C)(=O)=O [Compound 7-15, N-(6-(4-cyanophenoxy)pyridin-3-yl)-6-(4-(3-methyl-4-(methylsulfonyl)phenoxy)piperidine-1-carbonyl) nicotinamide] | – | 1000 to 10000 nM
COc1ccc(CN2CCC(NC(=O)c3ccc(C(=O)N4CCC(Oc5ccc(S(C)(=O)=O)c(C)c5)CC4)nc3)CC2)cc1 [Compound 7-16, N-(1-(4-methoxybenzyl)piperidin-4-yl)-6-(4-(3-methyl-4-(methylsulfonyl)phenoxy)piperidine-1-carbonyl) nicotinamide] | – | 1000 to 10000 nM
COCCN(C(=O)c1ccc(C(=O)N2CCC(C(=O)c3ccc(OC)cc3)CC2)nc1)C1CCN(Cc2ccc(C#N)cc2)CC1 [Compound 7-17, N-(1-(4-cyanobenzyl)piperidin-4-yl)-6-(4-(4-methoxybenzoyl)piperidine-1-carbonyl)-N-(2-methoxyethyl)nicotinamide] | – | < 1000 nM
COCCN(C(=O)c1ccc(C(=O)N2CCC(C(=O)c3ccc(OC)cc3)CC2)nc1)C1CCN(Cc2ccc(OC(F)(F)F)cc2)CC1 [Compound 7-18, 6-(4-(4-methoxybenzoyl)piperidine-1-carbonyl)-N-(2-methoxyethyl)-N-(1-(4-(trifluoromethoxy)benzyl)piperidin-4-yl)nicotinamide] | – | < 1000 nM
COc1ccc(C(=O)C2CCN(C(=O)c3ncc(C(=O)NC4CCN(Cc5ccc(C#N)cc5)CC4)cc3CCCNC(=O)CCOCCOCCOCCOCCNC(=O)CCCC[C@@H]3SC[C@@H]4NC(=O)N[C@@H]43)CC2)cc1 [Compound 7-19, N-(1-(4-cyanobenzyl)piperidin-4-yl)-5-(5,21-dioxo-25-((3aS,4S,6aR)-2-oxohexahydro-1H-thieno[3,4-d]imidazol-4-yl)-8,11,14,17-tetraoxa-4,20-diazapentacosyl)-6-(4-(4-methoxybenzoyl)piperidine-1-carbonyl)nicotinamide] | – | 10000 to 20000 nM
CC(=O)c1ccc(Oc2ccc(NC(=O)c3ccc(C(=O)N4CCC(Oc5ccc6sc(C)nc6c5)CC4)nc3)cn2)cc1 [Compound 7-20, N-(6-(4-acetylphenoxy)pyridin-3-yl)-6-(4-(2-methylbenzo[d]thiazol-5-yloxy)piperidine-1-carbonyl)nicotinamide] | – | < 1000 nM
COc1ccc(CN2CCC(NC(=O)c3ccc(C(=O)N4CCC(C(=O)c5ccc(OC)cc5)CC4)nc3)[C@@H](F)C2)cc1 (stereo partly drawn) [Compound 7-21, N-((3,4-trans)-3-fluoro-1-(4-methoxybenzyl)piperidin-4-yl)-6-(4-(4-methoxybenzoyl)piperidine-1-carbonyl)nicotinamide] | – | < 1000 nM
Cc1nc2cc(OC3CCN(C(=O)c4ccc(C(=O)NC5CCN(Cc6ccc(C#N)cc6)CC5)cn4)CC3)ccc2s1 [Compound 7-22, N-(1-(4-cyanobenzyl)piperidin-4-yl)-6-(4-(2-methylbenzo[d]thiazol-5-yloxy)piperidine-1-carbonyl)nicotinamide] | – | < 1000 nM
Cc1nc2cc(OC3CCN(C(=O)c4ccc(C(=O)NC5CCN(Cc6ccc(OC(F)(F)F)cc6)CC5)cn4)CC3)ccc2s1 [Compound 7-23, 6-(4-(2-methylbenzo[d]thiazol-5-yloxy)piperidine-1-carbonyl)-N-(1-(4-(trifluoromethoxy)benzyl)piperidin-4-yl)nicotinamide] | – | < 1000 nM
COc1ccc(CN2CCC(NC(=O)c3ccc(C(=O)N4CCC(Oc5ccc6sc(C)nc6c5)CC4)nc3)CC2)cc1 [Compound 7-24, N-(1-(4-methoxybenzyl)piperidin-4-yl)-6-(4-(2-methylbenzo[d]thiazol-5-yloxy)piperidine-1-carbonyl)nicotinamide] | – | < 1000 nM

From patent publication US9409884B2 (Rigel Pharmaceuticals, Inc., priority 2012, dated 2016)
